pIC50: −log10 of the molar value. ≈ marks a conversion by molar mass, not a printed value.
Legend:
Proteus hauseri = assay: Antimicrobial activity against Proteus hauseri NBRC 3851 after 24 hrs; type: functional; settings: NBRC 3851, 24 h
[1] = Inhibition of SortaseA
Bacillus spizizenii = assay: Antimicrobial activity against Bacillus subtilis ATCC 6633 after 24 hrs; type: functional; settings: ATCC 6633, 24 h
Staphylococcus aureus = assay: Antimicrobial activity against Staphylococcus aureus ATCC 6538p after 24 hrs; type: functional
Isocitrate lyase = Isocitrate lyase (Candida albicans, UniProt Q9P8Q7); assay: Inhibition of Candida albicans ATCC 10231 isocitrate lyase by spectrophotometric analysis
Sequence of Isocitrate lyase (Q9P8Q7 whole entry): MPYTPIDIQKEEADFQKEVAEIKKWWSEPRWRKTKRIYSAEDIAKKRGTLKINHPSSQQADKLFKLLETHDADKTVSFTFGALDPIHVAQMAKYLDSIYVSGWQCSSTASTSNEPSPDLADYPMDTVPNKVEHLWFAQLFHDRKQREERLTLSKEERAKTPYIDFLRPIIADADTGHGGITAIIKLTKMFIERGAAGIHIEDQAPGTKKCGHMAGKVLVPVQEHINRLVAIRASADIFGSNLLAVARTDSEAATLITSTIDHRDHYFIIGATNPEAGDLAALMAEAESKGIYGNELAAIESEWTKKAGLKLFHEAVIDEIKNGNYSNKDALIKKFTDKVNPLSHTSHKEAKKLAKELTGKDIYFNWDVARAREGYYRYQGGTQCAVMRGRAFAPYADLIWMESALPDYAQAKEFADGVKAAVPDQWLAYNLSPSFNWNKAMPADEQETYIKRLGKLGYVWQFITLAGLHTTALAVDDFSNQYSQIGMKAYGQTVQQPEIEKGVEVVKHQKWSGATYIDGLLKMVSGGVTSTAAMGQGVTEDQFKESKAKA

[2] = Inhibition of Na+/K+-ATPase by fluorometric method
Kocuria rhizophila = assay: Antimicrobial activity against Kocuria rhizophila NBRC 12708 after 24 hrs; type: functional; settings: NBRC 12708, 24 h
[3] = Cytotoxicity against human K562 cells after 48 hrs by MTT assay; type: cell-based; settings: read-out: LC50
Salmonella enterica = assay: Antimicrobial activity against Salmonella enterica ATCC 14028 after 24 hrs; type: functional; settings: ATCC 14028, 24 h
Escherichia coli = assay: Antimicrobial activity against Escherichia coli ATCC 35270 after 24 hrs; type: functional; settings: ATCC 35270, 24 h
[4] = Cytotoxicity against human A549 cells after 48 hrs by MTT assay; type: cell-based; settings: read-out: LC50

| Compound | MIC (Proteus hauseri) [µg/mL] | pIC50 [1] | MIC (Bacillus spizizenii) [µg/mL] | MIC (Staphylococcus aureus) [µg/mL] | pIC50 (Isocitrate lyase) | pIC50 [2] | MIC (Kocuria rhizophila) [µg/mL] | CC50 at 48 h [3] [µM] | MIC (Salmonella enterica) [µg/mL] | MIC (Escherichia coli) [µg/mL] | CC50 at 48 h [4] [µM] |
| --- | --- | --- | --- | --- | --- | --- | --- | --- | --- | --- | --- |
| COC(=O)C1=C(c2cc(Br)c(O)c(Br)c2)C(=O)OC1=C(c1cc(Br)c(O)c(Br)c1)c1cc(Br)c(O)c(Br)c1 [CADIOLIDE I] | 6.3 (≈ 6.97 µM) | < 3.92 | 0.8 (≈ 0.885 µM) | 0.8 (≈ 0.885 µM) | 4.97 | 5.30 | 0.8 (≈ 0.885 µM) | 51.2 | 1.6 (≈ 1.77 µM) | > 100 | 52.7 |
| COc1cccc2c1C(=O)c1c(O)c3c(c(O)c1C2=O)C[C@@](O)(C(=O)CO)C[C@@H]3O[C@H]1C[C@H](N)[C@H](O)[C@H](C)O1 [DOXORUBICIN] | – | – | – | – | – | – | – | 4.7 | – | – | 1.7 |
| COc1ccc(C=C2OC(=O)C([C@@H](O)c3cc(Br)c(OC)c(Br)c3)=C2c2cc(Br)c(O)c(Br)c2)cc1 | 3.1 (≈ 4.16 µM) | < 3.92 | 1.6 (≈ 2.14 µM) | 6.3 (≈ 8.44 µM) | < 4.00 | 4.87 | 3.1 (≈ 4.16 µM) | 50.8 | 3.1 (≈ 4.16 µM) | > 100 | 38.5 |
| O=C(O)CC[N+](=O)[O-] | – | – | – | – | 4.27 | – | – | – | – | – | – |
| O=C1O/C(=C\c2cc(Br)c(O)c(Br)c2)C(c2ccc(O)c(Br)c2)=C1C(=O)c1cc(Br)c(O)c(Br)c1 [CADIOLIDE E] | 3.1 (≈ 3.9 µM) | 4.10 | 1.6 (≈ 2.01 µM) | 3.1 (≈ 3.9 µM) | 5.05 | 5.60 | 0.8 (≈ 1.01 µM) | > 100 | 1.6 (≈ 2.01 µM) | > 100 | 40.4 |
| COc1c(Br)cc([C@H](O)C2=C(c3ccc(O)c(Br)c3)/C(=C/c3ccc(O)c(Br)c3)OC2=O)cc1Br [CADIOLIDE G] | 3.1 (≈ 4.23 µM) | < 3.92 | 12.5 (≈ 17.1 µM) | 3.1 (≈ 4.23 µM) | 4.30 | 4.99 | 3.1 (≈ 4.23 µM) | > 100 | 0.8 (≈ 1.09 µM) | > 100 | > 100 |
| Para-Hydroxymercuribenzoic acid | – | 3.98 | – | – | – | – | – | – | – | – | – |
| COC(=O)C(C(=O)c1cc(Br)c(O)c(Br)c1)=C(C(=O)OC)c1cc(Br)c(O)c(Br)c1 | 100 (≈ 149 µM) | < 3.92 | 50 (≈ 74.4 µM) | 100 (≈ 149 µM) | 4.58 | 4.55 | 100 (≈ 149 µM) | 53.7 | 50 (≈ 74.4 µM) | > 100 | 19.2 |
| C[C@@H]1O[C@@H](O[C@H]2C[C@@H](O)[C@]3(CO)[C@H]4[C@H](O)C[C@]5(C)[C@@H](C6=CC(=O)OC6)CC[C@]5(O)[C@@H]4CC[C@]3(O)C2)[C@H](O)[C@H](O)[C@H]1O [OUABAIN] | – | – | – | – | – | 5.24 | – | – | – | – | – |
| COC(=O)C(C(=O)c1cc(Br)c(O)c(Br)c1)=C(C(=O)OC)c1ccc(O)c(Br)c1 | > 100 | < 3.92 | > 100 | > 100 | 4.32 | 3.84 | > 100 | 49.7 | > 100 | > 100 | > 100 |
| CC1(C)S[C@@H]2[C@H](NC(=O)[C@H](N)c3ccccc3)C(=O)N2[C@H]1C(=O)O [AMPICILLIN] | 1.6 (≈ 4.58 µM) | – | 0.4 (≈ 1.14 µM) | 0.4 (≈ 1.14 µM) | – | – | 0.4 (≈ 1.14 µM) | – | 0.4 (≈ 1.14 µM) | 6.3 (≈ 18 µM) | – |
